# From US12187663B2, “Thyromimetics with a biphenylmethane scaffold and their use” (INTERNATIONAL SOCIETY FOR DRUG DEVELOPMENT S.R.L., priority 2019, dated 2025)
# Columns and labels:
# pancreatic acinar cells = test: Pancreatic acinar cell proliferation (BrdU labeling index); assay type: in vivo, rats; settings: one week; T3 4 mg/kg diet; GC1 50 μg/kg gavage once daily; TG68 and IS25 50 μg/kg in drinking water
# Method: FIG. 9. […] BrdU (1 mg/ml) in drinking water was given all throughout the experimental time. […] LI was expressed as number of BrdU-positive acinar cell nuclei/100 nuclei. At least 2000 acinar cells per pancreas were scored. Results are expressed as means±SE of 3 to 5 rats per group. (one way ANOVA). ***Statistically significant from control; P<0.001.
# BrdU (1 mg/ml) in drinking water was given all throughout the experimental time. […] LI was expressed as number of BrdU-positive acinar cell nuclei/100 nuclei. At least 2000 acinar cells per pancreas were scored.
# [1] = Panel of early-toxicity assays (in vitro ADME-TOX profiling); settings: 10 μM of each compound
# Method: FIG. 5. ADME-TOX profiling In order to assess the ADME-TOX profile of new synthetized compounds a full panel of in vitro assays was performed. Cytotoxic effects were evaluated on 4 different cell lines (U2-OS, HEK293, hTERT, MCF-7) at 24 h and 48 h after treatment with new compounds. Cardiac toxicity was assessed evaluating the inhibition effect of compounds on the hERG ion-channel, an important anti-target involved in heart functionalities. Metabolic interference was evaluated testing inhibitory effects of new compounds on four isoforms of CYP450 (CYP2C9, CYP2C19, CYP2D6, CYP3A4). In order to assess off-target liabilities, the inhibitory effects have been assessed against several well-known off-targets. […] The data were collected and analyzed in the form of a traffic-light system using criteria shown below.
# Test compounds (20 nL of 10 mM top concentration in 100% v/v DMSO), positive control (PC; Valinomycin with final concentration of 10 μM and 0.1% v/v DMSO) and NC (final 0.1% v/v DMSO) were added in an empty polystyrene 384-well cell culture microtiter plate using the Echo 550 Liquid Handler and stored at room temperature before cell's seeding. […] At 24 h and 48 h post-treatment, 20 μL/well of CTG detection mix were added, and plates were read using an EnVision Multilabel 2103 Reader after a 10-min incubation in the dark. […]
SMILES,pancreatic acinar cell proliferation (BrdU-positive acinar cells) (pancreatic acinar cells),early-toxicity / liability profile (% inhibition heat map) [1]
"Cc1cc(OCC(=O)O)cc(C)c1Cc1ccc(N)c(C(C)C)c1 [IS25, 2-(4-(4-amino-3-isopropylbenzyl)-3,5-dimethylphenoxy)acetic acid]",mitogenic only for the liver and not for other tissues,safer profile
"CC(=O)Nc1ccc(Cc2c(C)cc(OCC(=O)O)cc2C)cc1C(C)C [TG68, 2-(4-(4-acetamido-3-isopropylbenzyl)-3,5-dimethylphenoxy)acetic acid]",mitogenic only for the liver and not for other tissues,safer profile
